Series [1] concerns H9 ESC-derived NSCs. Description: Cell clump area after neuronal differentiation (INCUCYTE ZOOM System). Type of series: cell-based, human. The conditions noted are these: for cell clumping vs control group (cell clump area, FIG. 6): two weeks, Compound E 0.2, YO-01027 0.3, LY411575 0.25, MK-0752 20 micromolar, p<0.01.
Procedure: Also, at the end of that two week period of differentiation, the area of cell clumps was calculated using the [sequence] ZOOM™ System (Essen BioScience, Ann Arbor Mich.) by defining the area of cell mass ≥10,000 μm^2 as a cell clump.
(§3) Cells cultured in differentiation medium without the presence of the gamma-secretase inhibitor served as a control. In the test groups, cells were separately differentiated in the presence of Compound E at 0.2 micromolar, YO-01027 at concentrations of 0.3 micromolar, 1.5 micromolar and 7.5 micromolar, LY411575 at concentrations of 0.01 micromolar, 0.05 micromolar, 0.25 micromolar, 0.5 micromolar, 1.0 micromolar and 2.0 micromolar, and MK-0752 at concentrations of 0.8 micromolar, 4 micromolar, 20 micromolar, 40 micromolar and at 80 micromolar. Eight wells were tested for each concentration of each inhibitor.
At the end of a two week period of differentiation, the area of cell clumps was calculated for each test well using the [sequence] ZOOM™ System (Essen BioScience, Ann Arbor Mich.) by defining the area of cell mass ≥10,000 μm2 as a cell clump and the data plotted in FIG. 6.
In series [2] the test system is H9 ESC-derived NSCs. Description: Immunofluorescent image analysis: cells positive for HuC/D and negative for SOX1. It counts as cell-based, human.
From the text: as §3
The subject of series [3] is H9 ESC-derived NSCs. Description: EdU incorporation proliferation assay (CLICK-IT EdU). It counts as cell-based, human. The conditions noted are these: Day 6 of differentiation, EdU 24 h; 0.2 micromolar. As for the experimental part:
(§1) Differentiation of H9 ESC-derived NSCs was the same as for Example 2. At Day 6 of differentiation, cells were incubated with the nucleoside thymidine analog EdU for 24 h. EdU is incorporated into DNA during active DNA synthesis with the result that proliferating cells become labeled. EdU positive cells were detected using the CLICK-IT™ EdU Alexa FLUOR™ 488 HCS Assay (Cat. No. C10350, Thermo Fisher Scientific, Waltham Mass.) according to the manufacturer's protocols. Cells were then fixed with 4% paraformaldehyde and stained with antibodies against the apoptotic cell death marker caspase 9 (polyclonal, Cat. No. PA5-16358, Thermo Fisher Scientific, Waltham Mass.) according to the manufacturer's protocol.

For series [4], the system named is H9 ESC-derived NSCs. Description: Caspase 9 staining for apoptotic cell death. Type of series: cell-based, human. The conditions noted are these: six days of differentiation; 0.2 micromolar. How it is done:
as §1

A further series concerns NSC cultures. Description: CYQUANT Direct Cell Proliferation Assay. Type of series: cell-based. How it is done:
The proliferation and electrophysiology of cells resulting from differentiation in the presence of Compound E were compared to NSC control cultures. NSC cultures were plated at 20,000 cells per well on Day 0.
The CYQUANT™ Direct Cell Proliferation Assay (Molecular Probes Cat. No. C35011, Eugene Oreg.) was used to provide quantitation of proliferation at Day 4 and Day 7 of culture.

In series [5] the test system is primary rat cortical neuronal cells. Description: Differentiation of primary rat cortical neuronal cells, GFAP and HuC&D staining. Type of series: cell-based. The following applies: two weeks of differentiation. From the text: Cryopreserved primary rat cortical neuronal cells (Cat. No. A1084001, Thermo Fisher Scientific, Waltham Mass.), which had been isolated from rodent embryonic brain, were thawed and plated on poly-D-lysine 96-well plates (Cat. No. 08-774-255, Thermo Fisher Scientific, Waltham Mass.) coated with laminin (Cat. No. 23017, Thermo Fisher Scientific, Waltham Mass.) at a density of 8×10^4 cells/cm2. The culture medium was neuronal differentiation medium containing NEUROBASAL™ Medium (Cat. No. 21103, Thermo Fisher Scientific, Waltham Mass.), 2% B27 Supplement (Cat. No. 17504, Thermo Fisher Scientific, Waltham Mass.), 1% GLUTAMAX™ Supplement (Cat. No. 35050, Thermo Fisher Scientific, Waltham Mass.) without or with gamma secretase inhibitor Compound E. Every 2-3 days, half spent medium was removed from each well of the culture plates and the same volume of fresh medium was added into each well. At two weeks of differentiation, cells were fixed with 4% paraformaldehyde and stained with antibodies against neuronal marker HuC&D and astroglial marker glial fibrillary acidic protein (GFAP).

Another series relates to iPSC-derived NSCs. Description: Differentiation of iPSC-derived NSCs, phase images and NESTIN/DCX staining. Type of series: cell-based, human. The following applies: 0.1 micromolar. From the text:
Human induced pluripotent stem cells were derived from human fibroblasts using the CYTOTUNE™-iPS 2.0 Sendai Reprogramming Kit (Cat. No. A16517, INVITROGEN™, a part of Thermo Fisher Scientific, Waltham Mass.) and were induced to neural stem cells (NSCs) using the xeno free version of the GIBCO™ PSC Neural Induction Medium (Cat. No. A1647801, Thermo Fisher Scientific, Waltham Mass.).
To differentiate the NSCs into neuronal cells, cryo-preserved iPSC-derived NSCs were recovered and NSC passage three cells were plated on a 24 well plate (Cat. No. 087721, Thermo Fisher Scientific, Waltham Mass.) coated with human laminin (Cat. No. L6274, Sigma-Aldrich, St. Louis Mo.) at a density of 1˜5×10^4 cells/cm2. The cultures were maintained in neuronal differentiation medium containing NEUROBASAL™ Medium (Cat. No. 21103, Thermo Fisher Scientific, Waltham Mass.), 2% B27 Xeno Free Supplement (Cat. No. A1486701, Thermo Fisher Scientific, Waltham Mass.), 200 micromolar ascorbic acid (Cat. No. A8960, Sigma-Aldrich, St. Louis Mo.) with or without the gamma-secretase inhibitor Compound E (0.1 micromolar, Cat. No. 565790, EMD Millipore, Billerica Mass.). Every 2-3 days, medium was replenished with respective medium.
[…] No. 48-1200, Thermo Fisher Scientific, Waltham Mass.) and the neural stem cell marker NESTIN (Monoclonal, Cat. No. 611658, BD Biosciences, Franklin Lakes N.J.) according to the manufacturers' protocols.

Series [6] deals with H9 ESC-derived NSCs. Description: Long-term maintenance of differentiated neuronal cells. Type of series: cell-based, human. The conditions noted are these: 0.2 micromolar; without inhibitor cells detached at three weeks. The text has this:
(§2) To differentiate the NSCs into neuronal cells, cryo-preserved H9 ESC-derived NSCs were thawed and plated on poly-D-lysine 96-well plates (Cat. No. 08-774-255, Thermo Fisher Scientific, Waltham Mass.) coated with laminin (Cat. No. 23017, Thermo Fisher Scientific, Waltham Mass.) at a density of 5×10^4 cells/cm2. The cultures were maintained in the neuronal differentiation medium containing NEUROBASAL™ Medium (Cat. No. 21103, Thermo Fisher Scientific, Waltham Mass.), 2% B27 Supplement (Cat. No. 17504, Thermo Fisher Scientific, Waltham Mass.), 1% GLUTAMAX™ Supplement (Cat. No. 35050, Thermo Fisher Scientific, Waltham Mass.) and 200 micromolar ascorbic acid (Cat. No. A8960, Sigma-Aldrich, St. Louis Mo.) with or without the gamma-secretase inhibitor Compound E (0.2 micromolar, Cat. No. 565790, EMD Millipore, Billerica Mass.). Every 2-3 days, half spent medium was removed from each well of the culture plates and the same volume of fresh medium was added into each well.
For this study, the differentiation of H9 ESC-derived NSCs was the same as for Example 2. Without presence of the gamma secretase inhibitor during differentiation, neuronal cells detached from the culture plate at three weeks after differentiation as shown by the image of FIG. 7A. This effect may be due to the very high density of proliferated neural stem cells present. […]

Series [7] concerns H9 human ESC-derived NSCs. The series is described as follows: Differentiation of H9 ESC-derived NSCs, phase-contrast images and MAP2/SOX1 staining. Type of series: cell-based. The conditions noted are these: Day 14; 0.2 micromolar.
From the text: as §2
At two weeks of NSC differentiation into neuronal cells, cells were fixed with 4% paraformaldehyde and stained with antibodies against neuronal marker MAP2 (polyclonal, Cat. No. PA5-17646, Thermo Fisher Scientific, Waltham Mass.) and neural stem cell marker SOX1 (polyclonal, Cat. No. AF3369, R&D Systems, Minneapolis Minn.) according to the manufacturers' protocols.

The subject of series [8] is H9 ESC-derived NSCs. The series is described as follows: Cell toxicity during differentiation of NSCs. Type of series: cell-based, human. The conditions noted are these: 160 micromolar.
From the text: as §3
At the end of a two week period of differentiation, the area of cell clumps was calculated for each test well using the [sequence]

The text below walks through data of patent US20230279346A1, “METHODS OF DIFFERENTIATION TO NEURONAL CELLS AND KITS THEREFOR” (priority 2016, published 2023).

For `C[C@H](NC(=O)Cc1cc(F)cc(F)c1)C(=O)N[C@H]1N=C(c2ccccc2)c2ccccc2N(C)C1=O` [Compound E, (S,S)-2-[2-(3,5-difluorophenyl)-acetylamino]-N-(1-methyl-2-oxo-5-phenyl-2-,3-dihydro-1H-benzo[e][1,4]diazepin-3-yl)-propionamide], the “reduction in cell clumping” value in the series on H9 ESC-derived NSCs [1] (Compound E 0.2 micromolar, two weeks of differentiation, cell mass >=10,000 μm2 counted as clump, vs without inhibitor) is listed as 90%. The “cell clumping vs control group (cell clump area, FIG. 6)” value (from here on “cell clumping vs control group”) in the series with H9 ESC-derived NSCs [1] is “significant reduction in cell clumping”. The “percentage of cells co-stained positive for HuC/D and negative for SOX1” value (shortened to “percentage of cells co-stained positive”) with H9 ESC-derived NSCs [2] (at 0.2 micromolar) was 74.9%. In the series with H9 ESC-derived NSCs [3], the “proliferation of neural stem cells (EdU positive cells)” value was “substantially arrested”. Besides, the “cell death (caspase 9 positive cells)” value with H9 ESC-derived NSCs [4] is recorded as “no significant amount of cell death”. Also, in the series with NSC cultures (Day 4), the “reduction in cell count vs control culture” value is reported as roughly 2.5 fold. Also, the “relative fluorescence units (cell proliferation)” value in the series with NSC cultures (Day 4, control 0.93) is recorded as 0.36 RFU; with NSC cultures (Day 7, control 2.94), 0.55 RFU; in the series on NSC cultures (Day 14, control 18.7), 0.41 RFU; with NSC cultures (Day 21, control 21.5), 0.30 RFU. Besides, the “increase in RFU at Day 7 compared to Day 4” value with NSC cultures (Day 7 vs Day 4) is listed as roughly 1.5 fold. Further, the GFAP positive astrocytes entry in series [5] was “essentially eliminated”. Also, the “neurite outgrowth (phase-contrast)” value in the series on iPSC-derived NSCs (Day 5) is recorded as “extended neurite outgrowth”. Moreover, the “neuronal phenotype (DCX stain)” value with iPSC-derived NSCs (Day 7) is reported as “most of the cells present have adopted a neuronal phenotype”. In addition, the “proliferation of NESTIN positive cells” value in the series with iPSC-derived NSCs (Day 7) is “substantially retarded”. Besides, the proliferating progenitor cells result in the series on iPSC-derived NSCs (Day 14) is listed as “fewer proliferating progenitor cells are present”. Also, the “time differentiated neuronal cells can be maintained in culture” value with H9 ESC-derived NSCs [6] is “at least five weeks”. Moreover, the “cell clump formation (phase-contrast image)” value in series [7] is on record as “without formation of cell clumps”.
Take `C[C@H](NC(=O)[C@@H](O)c1cc(F)cc(F)c1)C(=O)N[C@@H]1C(=O)N(C)c2ccccc2-c2ccccc21` [LY411575, N-2((2S)-2-(3,5-difluorophenyl)-2-hydroxyethanoyl)-N1-((7S)-5-methyl-6-oxo-6,7-dihydro-5H-dibenzo[b,d]azepin-7-yl)-1-alaninamide]: the “cell clumping vs control group” value with H9 ESC-derived NSCs [1] is on record as “significant reduction in cell clumping”. Further, in the series with H9 ESC-derived NSCs [2] (at 0.25 micromolar), the “percentage of cells co-stained positive” value came to 64.7%.
`O=C(O)CC[C@H]1CC[C@@](c2cc(F)ccc2F)(S(=O)(=O)c2ccc(Cl)cc2)CC1` [MK-0752]: the “cell clumping vs control group” value in the series on H9 ESC-derived NSCs [1] was “significant reduction in cell clumping”. For the same compound, the “percentage of cells co-stained positive” value with H9 ESC-derived NSCs [2] (at 20 micromolar) was 64.7%. For the same compound, the cell toxicity entry in the series on H9 ESC-derived NSCs [8] is “cell toxicity”.
With `C[C@H](NC(=O)Cc1cc(F)cc(F)c1)C(=O)N[C@H]1N=C(c2ccccc2)c2ccccc2N(C)C1=O` [YO-01027, (S,S)-2-[2-(3,5-difluorophenyl)-acetylamino]-N-(1-methyl-2-oxo-5-phenyl-2-,3-dihydro-1H-benzo[e][1,4]diazepin-3-yl)-propionamide], the “percentage of cells co-stained positive” value in the series with H9 ESC-derived NSCs [2] (at 0.3 micromolar) was 73.4%.
